Data published in PubChem BioAssay (NCI).
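Where inhibition never reached the appropriate level, the endpoint shown equals the highest concentration tested. Otherwise, values were interpolated linearly from a five-concentration, 48-hour dose response in 96-well plates. TGI: total growth inhibition.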

Legend:
Assay in all cases: NCI tumour cell line growth inhibition, 48 h
[1] = tested on: HOP-92 NSCLC
[2] = tested on: SK-MEL-5 melanoma
[3] = tested on: M14 melanoma
[4] = tested on: HOP-18 NSCLC
[5] = tested on: K-562 leukemia
[6] = tested on: SF-295 CNS
[7] = tested on: OVCAR-3 ovarian
[8] = tested on: LOX IMVI melanoma
[9] = tested on: DMS 114 small cell lung
[10] = tested on: HCT-15 colon
[11] = tested on: MALME-3M melanoma
[12] = tested on: SN12C renal
[13] = tested on: RXF 393 renal
[14] = tested on: NCI-H460 lung
[15] = tested on: XF 498 CNS
[16] = tested on: HT29 colon
[17] = tested on: ACHN renal
[18] = tested on: SNB-78 CNS
[19] = tested on: DMS 273 small cell lung
[20] = tested on: U251 CNS
[21] = tested on: MOLT-4 leukemia
[22] = tested on: 786-0 renal
[23] = tested on: A498 renal
[24] = tested on: HCT-116 colon
[25] = tested on: HCC-2998 colon
[26] = tested on: SNB-75 CNS
[27] = tested on: COLO 205 colon
[28] = tested on: IGROV1 ovarian
[29] = tested on: SW-620 colon
[30] = tested on: CAKI-1 renal
[31] = tested on: DLD-1 colon
[32] = tested on: OVCAR-5 ovarian
[33] = tested on: HOP-62 NSCLC
[34] = tested on: HL-60(TB) leukemia
[35] = tested on: SF-268 CNS
[36] = tested on: TK-10 renal
[37] = tested on: M19-MEL melanoma
[38] = tested on: RPMI-8226 leukemia
[39] = tested on: KM20L2 colon
[40] = tested on: SK-MEL-28 melanoma
[41] = tested on: CCRF-CEM leukemia
[42] = tested on: LXFL 529 NSCLC
[43] = tested on: OVCAR-8 ovarian
[44] = tested on: EKVX NSCLC
[45] = tested on: SK-OV-3 ovarian
[46] = tested on: KM12 colon
[47] = tested on: NCI-H23 lung
[48] = tested on: SK-MEL-2 melanoma
[49] = tested on: A549 NSCLC
[50] = tested on: UACC-62 melanoma
[51] = tested on: SF-539 CNS
[52] = tested on: UACC-257 melanoma
[53] = tested on: OVCAR-4 ovarian
[54] = tested on: UO-31 renal
[55] = tested on: NCI-H226 lung
[56] = tested on: SNB-19 CNS

SMILES: CC(=O)NC1=C(NC(C)(C)C)C(=O)c2ccccc2C1=O
- TGI [1]: 34.6 µM
- TGI [2]: 32.5 µM
- TGI [3]: 31.1 µM
- TGI [4]: 28.4 µM
- TGI [5]: 25.2 µM
- TGI [6]: > 100 µM
- TGI [7]: 33.1 µM
- TGI [8]: 30.8 µM
- TGI [9]: 54.3 µM
- TGI [10]: 34.5 µM
- TGI [11]: 33.9 µM
- TGI [12]: 34.8 µM
- TGI [13]: 33.3 µM
- TGI [14]: 41.1 µM
- TGI [15]: 23.1 µM
- TGI [16]: 49.7 µM
- TGI [17]: > 100 µM
- TGI [18]: 99.1 µM
- TGI [19]: 45.4 µM
- TGI [20]: > 100 µM
- TGI [21]: 26.7 µM
- TGI [22]: 11.6 µM
- TGI [23]: 50.2 µM
- TGI [24]: 64.2 µM
- TGI [25]: > 100 µM
- TGI [26]: 26.5 µM
- TGI [27]: > 100 µM
- TGI [28]: 70.4 µM
- TGI [29]: 30.1 µM
- TGI [30]: 30 µM
- TGI [31]: 34.3 µM
- TGI [32]: > 100 µM
- TGI [33]: > 100 µM
- TGI [34]: 5.6 µM
- TGI [35]: 55.6 µM
- TGI [36]: 33.5 µM
- TGI [37]: 28.7 µM
- TGI [38]: 37.1 µM
- TGI [39]: 38 µM
- TGI [40]: 43.1 µM
- TGI [41]: 9.28 µM
- TGI [42]: 31.7 µM
- TGI [43]: 39.5 µM
- TGI [44]: 99.2 µM
- TGI [45]: > 100 µM
- TGI [46]: 92.9 µM
- TGI [47]: 35.2 µM
- TGI [48]: 42.9 µM
- TGI [49]: > 100 µM
- TGI [50]: 27.3 µM
- TGI [51]: 33.3 µM
- TGI [52]: 29.4 µM
- TGI [53]: 36.6 µM
- TGI [54]: 32.9 µM
- TGI [55]: 27.6 µM
- TGI [56]: > 100 µM
